Data taken from patent publication US10501514B2, “Cyclic galanin-analogs and uses thereof” (LanthioPep B.V., priority 2015, dated 2019).
Where two headings read alike, the source gives them in different places.

Experiments:
GalR1 [1] = target: T1, GalR1 (Homo sapiens, UniProt P47211)
T1 sequence (P47211 1-349): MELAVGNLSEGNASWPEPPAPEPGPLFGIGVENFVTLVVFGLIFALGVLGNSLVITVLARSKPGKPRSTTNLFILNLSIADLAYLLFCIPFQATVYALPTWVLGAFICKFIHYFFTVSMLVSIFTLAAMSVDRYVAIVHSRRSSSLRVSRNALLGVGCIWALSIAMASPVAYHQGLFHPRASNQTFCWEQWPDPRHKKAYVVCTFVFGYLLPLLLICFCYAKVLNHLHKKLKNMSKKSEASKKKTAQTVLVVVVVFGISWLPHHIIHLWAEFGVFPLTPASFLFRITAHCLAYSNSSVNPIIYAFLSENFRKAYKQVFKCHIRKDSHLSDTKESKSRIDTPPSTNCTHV
Method: (§1) The biological activity of the (lanthi)galanins was determined in CHO-K1 cell lines that express either the GalR1, or GalR2 receptor. Activity measurements were performed using commercial kits from DiscoverX for determining arrestin recruitment (GalR1, GalR2) and inhibition of cAMP synthesis (GalR1). In addition, HEK293 cell lines that express the GalR2 receptor have been used for methods from Molecular Probes to measure calcium efflux (GalR2).
(§2) ND indicates ‘not determined’.
(§3) Peptide was dissolved in 0.3% ammonia. Peptides were incubated o/n at 37° C. for the introduction of the lanthionine via base assisted sulfur extrusion of the disulfide bridged peptide. […] Different isomers were purified and lyophilized. Dry peptides were dissolved in 100 mM phosphate buffer pH=7.6 and peptides were incubated o/n at 50° C. After HPLC purification peptides with a pE formation were selected and used in the different Galanin receptor activation assays.

GalR1 [2] = target: T1, GalR1; assay: inhibition of cAMP synthesis in CHO-K1 cells expressing GalR1 (DiscoverX kit); assay type: cell-based; set-up: host or cells: CHO-K1; conditions: Table 2; variants chemically obtained by base-assisted sulfur extrusion; 'no' wraps to 'activity' = no activity
Method: as §1, §2, §3

GalR2 = target: T2, GalR2 (Homo sapiens, UniProt O43603); assay type: cell-based
T2 construct: expressed in transfected cells; host or cells: HEK293
T2 sequence (O43603 1-387): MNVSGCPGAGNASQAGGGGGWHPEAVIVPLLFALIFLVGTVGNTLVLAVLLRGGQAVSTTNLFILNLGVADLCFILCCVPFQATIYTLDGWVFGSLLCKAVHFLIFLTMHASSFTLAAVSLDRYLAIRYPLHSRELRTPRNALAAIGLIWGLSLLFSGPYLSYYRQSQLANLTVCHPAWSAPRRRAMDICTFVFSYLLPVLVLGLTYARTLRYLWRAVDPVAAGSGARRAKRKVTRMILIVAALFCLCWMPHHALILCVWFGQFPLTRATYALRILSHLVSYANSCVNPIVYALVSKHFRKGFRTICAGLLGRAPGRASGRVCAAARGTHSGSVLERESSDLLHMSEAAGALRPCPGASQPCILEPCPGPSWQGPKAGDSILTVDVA
Method: as §2
Peptide was dissolved in 0.3% ammonia. […] Different isomers were purified and lyophilized.

[3] = system: Galanin receptor (GalR1, GalR2); assay: Galanin receptor activation assays, overall statements in words; assay type: cell-based; conditions: overall statement on galanin receptor activation
Method: as §1
Peptide was dissolved in 0.3% ammonia. Peptides were incubated o/n at 37° C. for the introduction of the lanthionine via base assisted sulfur extrusion of the disulfide bridged peptide. Different isomers could be isolated by HPLC applying the same method as was used as for the biologically produced peptides. Different isomers were purified and lyophilized. Dry peptides were dissolved in 100 mM phosphate buffer pH=7.6 and peptides were incubated o/n at 50° C. After HPLC purification peptides with a pE formation were selected and used in the different Galanin receptor activation assays.

Row | Ratio EC50s relative to Gal-(1-15), GalR1 β-Arrestin (GalR1 [1]) | Ratio EC50s relative to Gal-(1-15), GalR1 cAMP inhibition (GalR1 [2]) | Ratio EC50s relative to Gal-(1-15), GalR2 Ca efflux (GalR2) | Ratio EC50s relative to Gal-(1-15), GalR2 β-Arrestin (GalR2) | activity, in words [3] | Ratio EC50s relative to Gal-(1-15), GalR1 β-Arrestin (GalR1 [1]; Table 2, variants chemically obtained by base-assisted sulfur extrusion, 'no' wraps to 'activity' = no activity) | SMILES
1 | >1000 | no | 11 | 137 | – | – | CC(C)C[C@H](NC(=O)[C@H](CC(C)C)NC(=O)[C@H](Cc1ccc(O)cc1)NC(=O)CNC(=O)[C@H](C)NC(=O)[C@H](C)NC(=O)[C@H](CC(N)=O)NC(=O)[C@H](CC(C)C)NC(=O)[C@H](CC(N)=O)NC(=O)[C@H](Cc1c[nH]c2ccccc12)NC(=O)[C@@H]1CCC(=O)N1)C(=O)NCC(=O)N1CCC[C@H]1C(=O)NC1CSCC(C(=O)O)NC(=O)[C@H](C(C)C)NC(=O)[C@H](C)NC1=O (single isomer, unassigned) [4178 A]
2 | 39 | no | 1.4 | 2.3 | highly active | – | CC(C)C[C@H](NC(=O)[C@H](CC(C)C)NC(=O)[C@H](Cc1ccc(O)cc1)NC(=O)CNC(=O)[C@H](C)NC(=O)[C@H](C)NC(=O)[C@H](CC(N)=O)NC(=O)[C@H](CC(C)C)NC(=O)[C@H](CC(N)=O)NC(=O)[C@H](Cc1c[nH]c2ccccc12)NC(=O)[C@@H]1CCC(=O)N1)C(=O)NCC(=O)N1CCC[C@H]1C(=O)NC1CSCC(C(=O)O)NC(=O)[C@H](C(C)C)NC(=O)[C@H](C)NC1=O (single isomer, unassigned) [4178 B]
3 | – | no | 94 | – | – | no | CC(C)C[C@@H]1NC(=O)[C@H](CC(C)C)NC(=O)[C@H](Cc2ccc(O)cc2)NC(=O)C(NC(=O)[C@H](C)NC(=O)[C@H](C)NC(=O)[C@H](CC(N)=O)NC(=O)[C@H](CC(C)C)NC(=O)[C@@H](NC(=O)[C@H](Cc2c[nH]c3ccccc23)NC(=O)[C@@H]2CCC(=O)N2)[C@@H](C)O)CSCC(C(=O)O)NC1=O (single isomer, unassigned) [4179 A, pEWTLNAAlanYLLlan]
4 | 720 | no | 2.6 | 3.8 | high activity | – | CC(C)C[C@@H]1NC(=O)[C@H](CC(C)C)NC(=O)[C@H](Cc2ccc(O)cc2)NC(=O)C(NC(=O)[C@H](C)NC(=O)[C@H](C)NC(=O)[C@H](CC(N)=O)NC(=O)[C@H](CC(C)C)NC(=O)[C@@H](NC(=O)[C@H](Cc2c[nH]c3ccccc23)NC(=O)[C@@H]2CCC(=O)N2)[C@@H](C)O)CSCC(C(=O)O)NC1=O (single isomer, unassigned) [4179 B, pEWTLNAAlanYLLlan]
